Results on two compounds are retold here after PMC12643063, “Mechanistic basis for inhibition of the extended‐spectrum β‐lactamase GES‐1 by enmetazobactam and tazobactam” (Febs Letters, 2025).

The term IC50 denotes the concentration that inhibits the measured activity by half. Read a low IC50 as greater potency in that assay.

Assay [1] deals with T1, GES-1 (Guiana extended-spectrum β-lactamase 1) (Klebsiella pneumoniae, UniProt Q9KJY7).
T1 construct: pOPIN-F, expressed in SoluBL21 (DE3) E. coli
The assay can be described thus: ([…] Å), mass spectrometry; IC50 by nitrocefin hydrolysis, […] min pre-incubation. It is filed as biochemical.

For assay [2], the target named is T1, GES-1 (Guiana extended-spectrum β-lactamase 1). The assay can be described thus: ([…] Å; […] Da aldehyde fragment on Ser70), mass spectrometry; IC50 by nitrocefin hydrolysis, […] min pre-incubation. It is filed as biochemical.

T1 sequence (Q9KJY7 18-287): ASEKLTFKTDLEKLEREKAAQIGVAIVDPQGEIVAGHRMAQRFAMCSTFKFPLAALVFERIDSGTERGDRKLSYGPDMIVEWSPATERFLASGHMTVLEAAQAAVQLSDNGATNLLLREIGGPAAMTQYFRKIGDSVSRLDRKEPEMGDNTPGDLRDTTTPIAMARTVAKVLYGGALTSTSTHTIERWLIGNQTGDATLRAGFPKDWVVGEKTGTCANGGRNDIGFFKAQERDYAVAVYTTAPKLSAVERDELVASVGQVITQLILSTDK

In turn, `C[n+]1ccn(C[C@@]2(C)[C@H](C(=O)O)N3C(=O)C[C@H]3S2(=O)=O)n1` [enmetazobactam] came in with an IC50 in assay [1] of 107 nM. In assay [2], `C[C@]1(Cn2ccnn2)[C@H](C(=O)O)N2C(=O)C[C@H]2S1(=O)=O` [tazobactam] showed an IC50 of 444 nM.
